{"source": "patent US20230125429A1", "about": "(priority 2017, published 2023)", "assay_in_all_cases": "Growth inhibitory effect, one hour exposure (IncuCyte Zoom)", "type_in_all_cases": "cell-based, human", "key": {"A498": {"system": "A498", "conditions": "A498, Renal", "description": "(§1) Cancer cell lines and immortalized human cell lines were cultured in 1640 tissue culture medium (Corning, USA) with 10% fetal bovine serum in a standard tissue culture condition of 37° C. and 5% CO2.\n(§2) For primary hepatocytes, the seeded cells were monitored for up to 48 hours either without any treatment (as a control) or with various types of treatments. For primary keratinocytes, cells in 48-well plates were monitored either without any treatment or with various types of treatment for up to 96 hours. For HepG2, cells 96-well plates were monitored either without any treatment or with various types of treatments for up to 48 hours. The IncuCyte Zoom was set to take a set of images at fixed locations (4 per well for 96-well plates and 16 per well for 48-well plates and 12-well plates) every three hours.\n(§3) The one-hour exposure is intended to simulate the transient high concentrations within the liver as the results of either the first pass effects of some orally administered drugs, or of locally delivered drugs, anticipating that such a short term exposure is nevertheless sufficient to affect certain cell surface receptors without causing any significant off-target effects due to intracellular absorption. Such a strategy would also reduce false hits due to reversible cell cycle arrests.\n(§4) To address this possibility, we investigated whether other cell lines, including other HCC cell lines, cell lines from other type of cancers, as well as non-cancer immortalized/transformed cell lines, were also sensitive to Triptonide. Specifically, a total of 51 human cancer cell lines, representing 10 types of human cancers (6 non-small cell lung cancer cell lines, 5 colon cancer cell lines, 5 central nerve system cancer cell lines, 8 Melanomas cell lines, 4 ovarian cancer cell lines, 4 renal cancer cell lines, 2 prostate cancer cell lines, 3 breast cancer cell lines, 7 hepatocellular carcinoma cell lines, and 4 gastric cancer cell lines) were analyzed."}, "AGS": {"system": "AGS", "conditions": "Gastric cancer", "description": "as §1, §2, §3, §4"}, "BGC823": {"system": "BGC823", "conditions": "BGC823, Gastric cancer", "description": "as §1, §2, §3, §4"}, "DU-145": {"system": "DU-145", "conditions": "DU-145, Prostate", "description": "as §1, §2, §3, §4"}, "HCC-2998": {"system": "HCC-2998", "conditions": "HCC-2998, Colon", "description": "as §1, §2, §3, §4"}, "HCT-15": {"system": "HCT-15", "conditions": "HCT-15, Colon", "description": "as §1, §2, §3, §4"}, "HOP-62": {"system": "HOP-62", "conditions": "HOP-62, Non-Small Cell Lung", "description": "as §1, §2, §3, §4"}, "HS 578T": {"system": "HS 578T", "conditions": "Breast", "description": "as §1, §2, §3, §4"}, "HT29": {"system": "HT29", "conditions": "HT29, Colon", "description": "as §1, §2, §3, §4"}, "HepG2": {"system": "HepG2", "description": "as §1, §2, §3, §4"}, "IGR-OV1": {"system": "IGR-OV1", "conditions": "IGR-OV1, Ovarian", "description": "as §1, §2, §3, §4"}, "LOX IMV1": {"system": "LOX IMV1", "conditions": "LOX IMV1, Melanoma", "description": "as §1, §2, §3, §4"}, "M14": {"system": "M14", "conditions": "M14, Melanoma", "description": "as §1, §2, §3, §4"}, "MALME-3M": {"system": "MALME-3M", "conditions": "Melanoma", "description": "as §1, §2, §3, §4"}, "MCP7": {"system": "MCP7", "conditions": "MCP7, Breast", "description": "as §1, §2, §3, §4"}, "MDA-MB-435": {"system": "MDA-MB-435", "conditions": "MDA-MB-435, Melanoma", "description": "as §1, §2, §3, §4"}, "MGC803": {"system": "MGC803", "conditions": "MGC803, Gastric cancer", "description": "as §1, §2, §3, §4"}, "NCI-H23": {"system": "NCI-H23", "conditions": "NCI-H23, Non-Small Cell Lung", "description": "as §1, §2, §3, §4"}, "NCI-H460": {"system": "NCI-H460", "conditions": "NCI-H460, Non-Small Cell Lung", "description": "as §1, §2, §3, §4"}, "NCI/ADR-RES": {"system": "NCI/ADR-RES", "conditions": "Ovarian", "description": "as §1, §2, §3, §4"}, "OVCAR-3": {"system": "OVCAR-3", "conditions": "OVCAR-3, Ovarian", "description": "as §1, §2, §3, §4"}, "OVCAR-4": {"system": "OVCAR-4", "conditions": "OVCAR-4, Ovarian", "description": "as §1, §2, §3, §4"}, "OVCAR-5": {"system": "OVCAR-5", "conditions": "OVCAR-5, Ovarian", "description": "as §1, §2, §3, §4"}, "PC-3": {"system": "PC-3", "conditions": "PC-3, Prostate", "description": "as §1, §2, §3, §4"}, "SF-295": {"system": "SF-295", "conditions": "SF-295, CNS", "description": "as §1, §2, §3, §4"}, "SF-539": {"system": "SF-539", "conditions": "SF-539, CNS", "description": "as §1, §2, §3, §4"}, "SK-MEL-28": {"system": "SK-MEL-28", "conditions": "SK-MEL-28, Melanoma", "description": "as §1, §2, §3, §4"}, "SN12C": {"system": "SN12C", "conditions": "Renal", "description": "as §1, §2, §3, §4"}, "SNU-449": {"system": "SNU-449", "conditions": "SNU-449, Hepatocellular carcinoma", "description": "as §1, §2, §3, §4"}, "SW-620": {"system": "SW-620", "conditions": "SW-620, Colon", "description": "as §1, §2, §3, §4"}, "T-47D": {"system": "T-47D", "conditions": "Breast", "description": "as §1, §2, §3, §4"}, "U251": {"system": "U251", "conditions": "U251, CNS", "description": "as §1, §2, §3, §4"}, "UACC-257": {"system": "UACC-257", "conditions": "UACC-257, Melanoma", "description": "as §1, §2, §3, §4"}, "UACC-62": {"system": "UACC-62", "conditions": "UACC-62, Melanoma", "description": "as §1, §2, §3, §4"}}, "note": "Several values for one entry are separate records, joined by “and”; a condition that tells them apart may be missing. Equal entries are not always repeated."}
{"smiles": "CC(C)[C@]12O[C@H]1[C@@H]1O[C@@]13[C@@]1(C)CCC4=C(COC4=O)[C@@H]1C[C@@H]1O[C@@]13C2=O", "note": "[Triptonide]", "values": [{"measurement": "IC50", "setting": "A498", "value": 4.34, "unit": "µM"}, {"measurement": "IC50", "setting": "AGS", "value": 4.07, "unit": "µM"}, {"measurement": "IC50", "setting": "BGC823", "value": 10.4, "unit": "µM"}, {"measurement": "IC50", "setting": "DU-145", "value": 2380, "unit": "nM"}, {"measurement": "IC50", "setting": "HCC-2998", "value": 2770, "unit": "nM"}, {"measurement": "IC50", "setting": "HCT-15", "value": 1180, "unit": "nM"}, {"measurement": "IC50", "setting": "HOP-62", "value": 9.23, "unit": "µM"}, {"measurement": "IC50", "setting": "HS 578T", "value": 1860, "unit": "nM"}, {"measurement": "IC50", "setting": "HT29", "value": 1700, "unit": "nM"}, {"measurement": "effect on growth of HepG2", "setting": "HepG2; 4 µM or higher for one hour", "value": "significant growth inhibition"}, {"measurement": "effect on cell density of HepG2", "setting": "HepG2; 16 µM and above, one hour", "value": "apparent reduction in cell density"}, {"measurement": "IC50", "setting": "HepG2; HepG2, Hepatocellular carcinoma, one hour exposure", "value": "7.5 µM and 7.51 µM"}, {"measurement": "IC50", "setting": "IGR-OV1", "value": 4.66, "unit": "µM"}, {"measurement": "IC50", "setting": "LOX IMV1", "value": 1770, "unit": "nM"}, {"measurement": "IC50", "setting": "M14", "value": 4.93, "unit": "µM"}, {"measurement": "IC50", "setting": "MALME-3M", "value": 3.44, "unit": "µM"}, {"measurement": "IC50", "setting": "MCP7", "value": 592, "unit": "nM"}, {"measurement": "IC50", "setting": "MDA-MB-435", "value": 1910, "unit": "nM"}, {"measurement": "IC50", "setting": "MGC803", "value": 2580, "unit": "nM"}, {"measurement": "IC50", "setting": "NCI-H23", "value": "410 nM and 415 nM"}, {"measurement": "IC50", "setting": "NCI-H460", "value": 8.44, "unit": "µM"}, {"measurement": "IC50", "setting": "NCI/ADR-RES", "value": 8.34, "unit": "µM"}, {"measurement": "IC50", "setting": "OVCAR-3", "value": 4.9, "unit": "µM"}, {"measurement": "IC50", "setting": "OVCAR-4", "value": 1540, "unit": "nM"}, {"measurement": "IC50", "setting": "OVCAR-5", "value": 8.23, "unit": "µM"}, {"measurement": "IC50", "setting": "PC-3", "value": 6.71, "unit": "µM"}, {"measurement": "IC50", "setting": "SF-295", "value": 14.6, "unit": "µM"}, {"measurement": "IC50", "setting": "SF-539", "value": 1140, "unit": "nM"}, {"measurement": "IC50", "setting": "SK-MEL-28", "value": 17.8, "unit": "µM"}, {"measurement": "IC50", "setting": "SN12C", "value": 1070, "unit": "nM"}, {"measurement": "IC50", "setting": "SNU-449", "value": 4.92, "unit": "µM"}, {"measurement": "IC50", "setting": "SW-620", "value": 11.6, "unit": "µM"}, {"measurement": "IC50", "setting": "T-47D", "value": 1810, "unit": "nM"}, {"measurement": "IC50", "setting": "U251", "value": 43.2, "unit": "µM"}, {"measurement": "IC50", "setting": "UACC-257", "value": 16, "unit": "µM"}, {"measurement": "IC50", "setting": "UACC-62", "value": 9.35, "unit": "µM"}]}
